Measurements published in ChEMBL document CHEMBL4393688, “Synthesis, in vitro and in vivo characterization of new benzoxazole and benzothiazole-based sigma receptor ligands” (Eur J Med Chem, 2019).
The source made the active and inactive calls. The rule behind the calls is not given here.

Columns and labels:
[1] = target: Sigma intracellular receptor 2 (Homo sapiens, UniProt Q5BJF2); test: Displacement of [3H]-DTG from sigma2 receptor (unknown origin) incubated for 120 mins by scintillation counting method
Sigma intracellular receptor 2, sequence (Q5BJF2 whole entry): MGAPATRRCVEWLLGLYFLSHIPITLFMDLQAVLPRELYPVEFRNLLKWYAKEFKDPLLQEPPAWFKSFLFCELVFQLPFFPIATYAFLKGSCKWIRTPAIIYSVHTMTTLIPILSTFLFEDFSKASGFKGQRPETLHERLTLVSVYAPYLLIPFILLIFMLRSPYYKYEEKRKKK

[2] = Selectivity ratio of Ki for sigma2 receptor (unknown origin) to Ki for sigma1 receptor in guinea pig brain cortex membranes; format: cell membranes
[3] = target: Sigma non-opioid intracellular receptor 1 (Cavia porcellus, UniProt Q60492); test: Displacement of [3H]-(+)-pentazocine from sigma1 receptor in guinea pig brain membranes incubated for 150 mins by scintillation counting method; format: cell membranes
Sigma non-opioid intracellular receptor 1, sequence (Q60492 whole entry): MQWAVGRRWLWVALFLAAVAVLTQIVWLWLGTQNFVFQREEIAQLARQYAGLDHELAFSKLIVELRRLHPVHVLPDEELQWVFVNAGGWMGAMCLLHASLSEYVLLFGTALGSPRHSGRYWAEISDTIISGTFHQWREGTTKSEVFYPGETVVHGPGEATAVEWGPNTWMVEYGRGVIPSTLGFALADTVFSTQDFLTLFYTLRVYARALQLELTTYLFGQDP

[4] = system: MCF7; test: Induction of apoptosis in human MCF7 cells assessed as increase in caspase-3 activity at 20 uM incubated for 24 hrs by Ac-DEVD-pNA substrate-based colorimetric assay; format: functional, cell-based
[5] = system: MCF7; test: Cytotoxicity against human MCF7 cells assessed as reduction in cell viability incubated for 24 hrs by MTT assay; format: functional, cell-based; details: MCF7, 24 h
[6] = system: Mus musculus; test: Analgesic activity in formalin-induced nociception mouse model assessed as decrease in time spent on licking or flinching formalin injected right hind paw during early nociceptive phase at 2.5 to 5 mg/kg, ip administered 15 mins prior to formalin challenge measured at 5 mins interval for 10 mins; format: functional, organism-based
[7] = system: Mus musculus; test: Analgesic activity in formalin-induced nociception mouse model assessed as decrease in time spent on licking or flinching formalin injected right hind paw during inflammatory phase at 2.5 to 5 mg/kg, ip administered 15 mins prior to formalin challenge measured at 5 mins interval for 10 to 60 mins; format: functional, organism-based

Row | SMILES | Ki [1] [nM] | Ratio Ki [2] | Ki [3] [nM] | Activity [4] | IC50 [5] [nM] | Activity [6] | Activity [7]
1 | Clc1ccc2sc(SCCN3CCCCCC3)nc2c1 | > 1000 | > 2.4 | 407 |  |  |  | 
2 | O=c1sc2ccc(Cl)cc2n1CCCCN1CCCCCC1 | 7.61 | 9.7 | 0.78 | Active | 27800 | inactive | Active
3 | O=c1oc2ccc(Cl)cc2n1CCCCN1CCCCCC1 | 3.8 | 1.6 | 2.3 | Active | 44800 | Active | Active
4 | Clc1ccc2sc(SCCCCN3CCCCCC3)nc2c1 | 21.8 | 2.6 | 8.44 |  |  |  | 
5 | O=c1sc2ccc(Cl)cc2n1CCCN1CCCCCC1 | 68.8 | 9.3 | 7.4 |  |  |  | 
6 | O=C(CCCN1CCC(O)(c2ccc(Cl)cc2)CC1)c1ccc(F)cc1 [HALOPERIDOL] |  |  |  | Active | 20200 |  | 
7 | Clc1ccc2sc(SCCCN3CCCCCC3)nc2c1 | 7.9 | 6.8 | 1.27 | Active | 20500 | inactive | inactive
8 | CC[C@H]1C[C@@H]2C[C@H]3c4[nH]c5ccc(OC)cc5c4CC[N@@](C2)[C@@H]13 |  |  |  | Active | 29600 |  | 
9 | O=c1sc2ccc(Cl)cc2n1CCN1CCCCCC1 | 1670 | 9.3 | 180 |  |  |  | 
10 | Clc1ccc2oc(SCCCN3CCCCCC3)nc2c1 | 16 | 6.2 | 2.35 |  |  |  | 
11 | O=c1oc2ccc(Cl)cc2n1CCCN1CCCCCC1 | 64.1 | 10.2 | 6.3 |  |  |  | 
12 | O=c1oc2ccc(Cl)cc2n1CCN1CCCCCC1 | 652 | 6.6 | 99 |  |  |  | 
13 | Clc1ccc2oc(SCCN3CCCCCC3)nc2c1 | 87 | 45 | 1.93 |  |  |  | 
14 | Clc1ccc2oc(SCCCCN3CCCCCC3)nc2c1 | 11 | 4.6 | 2.4 |  |  |  | 
